Data from the SangsterLogP compilation.

Assay: method code SF-AS,RC, from DOI: 10.1021/es00166a009, PMID: 22195514
Settings: pH 1.5
Compound `Cc1cccc(O)c1[N+](=O)[O-]` has a logD of 2.29.

Assay: method code SF-AS, from DOI: 10.1021/es00166a009, PMID: 22195514
Settings: not given
`Cc1ccc([N+](=O)[O-])c(O)c1` gave a logP of 2.31.

Same assay, conditions: pH 1.5
Compound `CCC(C)c1ccc(O)c([N+](=O)[O-])c1` (stereo unspecified) has a logD of 3.84. Work on `O=[N+]([O-])c1cc(-c2ccccc2)ccc1O` yielded a logD of 3.71. With `O=Cc1ccc(O)c([N+](=O)[O-])c1` the logD was 1.48. For `COc1ccc(O)c([N+](=O)[O-])c1`, the logD was 2.02. `Cc1cc(O)c([N+](=O)[O-])cc1Cl` showed a logD of 2.93. With `O=[N+]([O-])c1cc(C(F)(F)F)ccc1O` the logD was 2.34. Compound `Cc1ccc(O)c([N+](=O)[O-])c1` has a logD of 2.37. Compound `O=[N+]([O-])c1ccc(F)cc1O` has a logD of 1.91. For `O=[N+]([O-])c1ccccc1O`, the logD was 1.89.
